Entries after “also recorded” stand apart in the source; their conditions may differ. Ends that are not written are not given here.
Experiments:
[1] = tested on: oxidative burst in inflammatory cells (reactive oxygen species); assay: Oxidative burst (ROS, DHR 123 flow cytometry) in leukocytes isolated from brain tissue after mild brain injury (controlled cortical impact); type: in vivo, C57/B6 mice
Protocol: FIG. 1 depicts principle of assaying oxidative burst within inflammatory cells. Dihydrorhodamine 123 (DHR 123) diffuses across the cell membrane. When it encounters reactive oxygen species (ROS), DHR 123 is oxidized and fluoresces green. The fluorescence is then measured and presented as arbitrary fluorescence unit (AFU), wherein higher intensity means greater oxidative burst and, therefore greater concentration of amount of ROS (See Chen, et al., Measurement of oxidative burst in neutrophils,” Methods Mol Biol., 844: 115-124 (2012); which is incorporated herein by reference in its entirety).
Ghrelin administration reduces oxidative burst in inflammatory cells following mBI. Since no well-accepted animal model exists for concussions, a very small cerebral lesion that closely mimics mBI is used as a model of mBI. […] Anesthesia is assessed by paw pinch reflex. […]
Animals are separated into three treatment groups: 1) Sham, 2) mBI, and 3) mBI plus ghrelin. […] The fluorescence is then measured and presented as arbitrary fluorescence unit (AFU), wherein higher intensity means greater oxidative burst and, therefore greater concentration or amount of ROS. […] Oxidative burst, which is a marker for ROS, can be measured by flow cytometry (e.g., FL1 channel with 488-nm laser).

[2] = tested on: blood brain barrier (BBB) vascular permeability; Aquaporin 4 (AQP-4); assay: Ghrelin treatment of TBI animals (background statement): BBB vascular permeability and Aquaporin 4 expression; type: in vivo; details: following TBI

Gly-Ser-Ser-Phe-Leu-Ser-Pro-Glu-His-Gln-Arg-Val-Gln-Gln-Arg-Lys-Glu-Ser-Lys-Lys-Pro-Pro-Ala-Lys-Leu-Gln-Pro-Arg (SEQ ID NO. 1) (GSSFLSPEHQRVQQRKESKKPPAKLQPR; not fully specified (residues 2, 3); printed as Gly-Ser-Ser-Phe-Leu-Ser-Pro-Glu-His-Gln-Arg-Val-Gln-Gln-Arg-Lys-Glu-Ser-Lys-Lys-Pro-Pro-Ala-Lys-Leu-Gln-Pro-Arg; also: octanoyl on Ser2 and/or Ser3 stated only as an option; listed as Homo sapiens) [ghrelin, 28-amino acid peptide, neuroendocrine hormone, endogenous ligand for growth hormone secretagogue receptor; obtainable from Phoenix Pharmaceuticals]
Oxidative burst of ipsilateral whole brain following mild BI (mean fluorescence intensity) ([1]; mild BI+ghrelin (2 doses), subcutaneous 10 μg following mBI and 10 μg 1 hour after, vs 7963 AFU±2900 mild BI and 4624 AFU±1858 sham, n=5, p=0.048): 3257 AFU | Oxidative burst in inflammatory cells following mBI (FIG. 2, peak shift) ([1]; subcutaneous ghrelin vs untreated mBI, n=3 animals in each group): reduced the oxidative burst; also recorded: lower oxidative burst | Post-TBI up-regulation of Aquaporin 4 (AQP-4) [2]: prevents post-TBI up-regulation of Aquaporin 4
